The source of these data is paper PMC12519996, “Copper pyrithione complexes with endoplasmic reticulum localisation showing anticancer activity via ROS generation” (Chemical Science, 2025).

A value given as a limit tells only on which side of the number the result lay.

The test system of data set [1] is pancreatic cancer MIA PaCa-2 cells. Description: Cell viability (MTT) assay, MIA PaCa-2. The format is cell-based, human. The following applies: for IC50: 24 h incubation, n = 9, MTT, read-out: IC50 ± SD, MIA PaCa-2. How it is done:
(§1) The potential therapeutic activity of the copper pyrithione complexes was determined by screening complexes for 24 hours against human cancer cell lines MCF-7 (breast) and MIA PaCa-2 (pancreatic), alongside a non-cancerous epithelial cell line ARPE-19 (retinal). As controls, cisplatin and CuCl2·2H2O were also included in the screen (Table 2). […]
(§2) All cell lines were maintained as monolayers in either T75 or T175 flasks in complete high glucose DMEM media (supplemented with 10% Fetal Bovine Serum, 1% sodium pyruvate, 1% L-glutamine, 1% penstrep). All cell lines were seeded at 4000 cells/well in a clear-bottom 96-well plate and incubated for 24 h for cells to adhere. The cells were treated with varying concentrations of each complex and left to incubate for a further 24 h. MTT reagent (20 mL, 5 mg/mL) was added to each well, and the plates were incubated for 3 h. The media was removed by aspiration, followed by the addition of DMSO (150 mL) to solubilise the formazan. The absorbance was read using a Clariostar plate reader at 540 nm. Results were plotted on a logarithmic scale, and the half maximal inhibitory concentration (IC 50) was determined from a triplicate of triplicate repeats and reported as an IC 50 ± Standard Deviation (SD). […]

Data set [2] deals with breast cancer MCF-7 cells. Description: Cell viability (MTT) assay, MCF-7. Particulars: for IC50: 24 h incubation, n = 9, MTT, read-out: IC50 ± SD, MCF-7; for Selectivity index (SI) against MCF-7: IC50 against non-cancerous ARPE-19 cells divided by IC50 against MCF-7. The class given is cell-based, human. On the procedure: as §1, §2
Data set [3] deals with non-cancerous retinal epithelial ARPE-19 cells. Kind of data set: Cell viability (MTT) assay, ARPE-19. The format is cell-based. Particulars: 24 h incubation, n = 9, MTT; read-out: IC50 ± SD, ARPE-19. On the procedure: as §1, §2
The test system of data set [4] is MCF-7 cells. Kind of data set: Reactive oxygen species study, H2DCFDA stain (Method 1). The class given is cell-based, human. The following applies: complex at 10 μM for 1 h, H2DCFDA 20 μM for 30 min. An excerpt: To understand a potential mechanism of action, we determined production of reactive oxygen species (ROS) using fluorescent microscopy assays. ROS production is a common mode of therapeutic activity of copper complexes.[43] […] In the presence of ROS, H2DCFDA converts to a fluorescent dye that can be observed using microscopy. […] By contrast, control cells with no pyrithione complex added show little fluorescence (Fig. 6A). […] (Fig. 6B), [Cu(6-Me-PT)2] (Fig. 6C), and [Cu(3-OMe-PT)2] […] (Fig. 6D) was weaker. This variation correlates well with the cytotoxicity data in Table 2, with the methyl and methoxy complexes also showing the highest activity.
Next, cells were dosed at two concentrations of pyrithione complex to determine whether production of ROS is dose-dependent. Results for [Cu(3-OMe-PT)2] are shown at 1 μM (Fig. 6E) and 10 μM (Fig. 6F) after 1 hour; results for other complexes are shown in the SI (Fig. S11 and 12). In all cases, the fluorescence intensity increases in assays with 10 μM complex, compared to assays with 1 μM complex, supporting a mode of action where increasing complex concentration leads to increased ROS generation and higher cytotoxicity. […]
absorbance and K = binding constant. […]
The cells were treated with varying
Results were plotted on a
Reactive oxygen species study:
Method 1: 2′,7′-dichlorodihydrofluorescein diacetate (H 2DCFDA) stain: […]
untreated sample (negative control). After this time, 2′,7′-dichlorodihydrofluorescein diacetate […]
Stock solutions of the compounds (5 mM) were made

Data set [5] can be described thus: Thermodynamic stability constant, Benesi-Hildebrand UV-vis titration. Particulars: Benesi-Hildebrand method, MeCN:H2O 1:1, absorbance at 320 nm. The class given is physicochemical. How it is done: (§3) Where [M] is concentration of copper, [L] is concentration of the activated ligand, b is the pathlength, which was kept at 1 cm, ɛ is molar extinction coefficient of the complex, A is absorbance and K = binding constant.
All cell lines were maintained as monolayers in either T75 or T175 flasks in complete high glucose DMEM media (supplemented with 10% Fetal Bovine Serum, 1% sodium pyruvate, 1% L-glutamine, 1% penstrep). All cell lines were seeded at 4000 cells/well in a clear-bottom 96-well plate and incubated for 24 h for cells to adhere. The cells were treated with varying concentrations of each complex and left to incubate for a further 24 h. MTT reagent ([…], 5 mg/mL) was added to each well, and the plates were incubated for 3 h. The media was removed by aspiration, followed by the addition of DMSO ([…]) to solubilise the formazan. The absorbance was read using a Clariostar plate reader at 540 nm. Results were plotted on a logarithmic scale, and the half maximal inhibitory concentration (IC 50) was determined from a triplicate of triplicate repeats and reported as an IC 50 ± Standard Deviation (SD).

The nature of data set [6]: Solubility by observation. Particulars: aqueous and organic solvents, qualitative.
For data set [7], the system named is MCF-7 (breast) cancer cell line. The following applies: cited from earlier work.
Data set [8] relates to MCF-7 cells. Particulars: dosed, fixed. How it is done:
as §3
as §2, with “MTT reagent (20 mL, 5 mg/mL) was added to each well, and the plates were incubated for 3 h. The media was removed by aspiration, followed by the addition of DMSO (150 mL) to solubilise the formazan.” left out
MCF-7 cells were seeded into a black 96 well optical bottom plate at 8000 cells/well in phenol-red free complete DMEM medium (100 μl), and incubated at 37 °C and 5% CO 2 for 24 h. […] Cells were gently washed with PBS (2 x 100 µl), and 100 µl of PBS was added to each well before reading.
Fluorescence images were obtained using Zeiss Axio Observer 7 inverted microscope at excitation at 488 nm and emission at 509 nm, and analysed using ZEN 3.8 software. […]

For data set [9], the system named is U266 (myeloma) cancer cell line. Particulars: cited from earlier work.
The nature of data set [10]: Lipophilicity, octanol:water shake-flask method with ICP-OES copper quantification. Particulars: copper by ICP-OES, triplicate.
Protocol: Due to the low aqueous solubility of [Cu(PT)2], inductively coupled plasma-optical emission spectroscopy (ICP-OES) was used to quantify copper in the octanol and water layers (see SI).
General procedure for logP measurement:
Stock solutions (10 mM) of the tested copper complexes were prepared in DMSO solvent.
Water and octanol were saturated with the other solvent to match the final shake-flask
conditions. Next, log P values were determined using the shake-flask method. For each
complex, 60 µl of the stock solution was added to a mixture of 3 ml water and 3 ml n-octanol.
The solution was shaken by hand and vortexed. The layers were separated and analysed by
inductively coupled plasma optical emission spectroscopy (ICP-OES). For the octanol layer,
100 µl was collected in a vial and the solvent was evaporated under high vacuum. Next, the
residue was dissolved in 100 µl methanol and further diluted with 10 ml of 5% aqueous nitric
acid (HNO 3) solution for digestion. For the water layer, 1 ml of solution was diluted with 9 ml
of 5% aqueous HNO 3 solution. After analysis through ICP-OES technique, the amount of
copper in each sample was determined in ppm. To remove background copper, the exact
conditions were repeated in the absence of copper pyrithione complexes and the values were
subtracted from the measured values. The partition coefficient (P) and respective logP values
In data set [11] the test system is NCI-H929 (myeloma) cancer cell line. Particulars: cited from earlier work.
In data set [12] the test system is HepG2 (liver) cancer cell line. The following applies: cited from earlier work.

As for `N.N.[Cl][Pt][Cl]` [Cisplatin, reference compound], the results for the IC50 in [1], in [2] and in [3] were > 100 µM, 40 ± 1 µM and 13 ± 0.1 µM, respectively. The “Selectivity index (SI) against MIA PaCa-2” value in data set [1] (IC50 against non-cancerous ARPE-19 cells divided by IC50 against MIA PaCa-2) is listed as < 0.13.

As to `[Cl][Cu][Cl]` [CuCl2·2H2O, reference compound], the half-inhibitory concentration (IC50) was > 100 µM in data set [1], > 100 µM in data set [2] and 83 ± 2 µM in data set [3].

For the compound `Cc1cccn([O-])c1=S.Cc1cccn([O-])c1=S.[Cu+2]` [[Cu(3-Me-PT)2]], the results for the half-inhibitory concentration (IC50) in [1], in data set [2] and in data set [3] were 7.1 ± 0.2 µM, 0.347 ± 0.006 µM and 2.2 ± 0.1 µM, respectively. In addition, the “Selectivity index (SI) against MCF-7” value in [2] is on record as 6.34.

Take `COc1ccc[n+]([O-])c1[S][Cu][S]c1c(OC)ccc[n+]1[O-]` [[Cu(3-OMe-PT)2]]: the figures for the IC50 in data set [1], in [2] and in [3] were 2.7 ± 0.1 µM, 0.22 ± 0.01 µM and 0.87 ± 0.04 µM, respectively. Besides, the “ROS production, H2DCFDA fluorescence” value in data set [4] is reported as “brightest fluorescence”. Moreover, the “Log(K/(M^−2))” value in [5] amounted to 7.560 ± 0.002. In addition, the “Selectivity index (SI) against MCF-7” value in data set [2] turned out to be 3.95.

As for `[Cu+2].[O-]n1ccc(C(F)(F)F)cc1=S.[O-]n1ccc(C(F)(F)F)cc1=S` [[Cu(4-CF3-PT)2]], the results for the IC50 in data set [1], in data set [2] and in data set [3] were 21.6 ± 0.4 µM, 8.9 ± 0.3 µM and 17.3 ± 0.4 µM, respectively.

As for `Cc1cc[n+]([O-])c([S][Cu][S]c2cc(C)cc[n+]2[O-])c1` [[Cu(4-Me-PT)2]], the IC50 in [1] was determined as 8.5 ± 0.3 µM; in data set [2], 0.69 ± 0.02 µM; in [3] it was 1.8 ± 0.1 µM.

Take `Cc1cccc([S][Cu][S]c2cccc(C)[n+]2[O-])[n+]1[O-]` [[Cu(6-Me-PT)2]]: the IC50 worked out at 2.1 ± 0.1 µM in data set [1], 0.57 ± 0.01 µM in [2] and 0.57 ± 0.03 µM in data set [3]. Moreover, the “ROS production, H2DCFDA fluorescence” value in data set [4] is “brightest fluorescence”. Further, in data set [5], the “Log(K/(M^−2))” value worked out at 7.498 ± 0.005.

With `On1ccccc1=S.On1ccccc1=S.[Cu]` [[Cu(PT)2], copper pyrithione], the “Solubility (by observation)” value in data set [6] is recorded as “low solubility”. Besides, in data set [7], the “IC50 against MCF-7” value is reported as “submicromolar”. The “ROS levels compared to menadione, CellROX stain” value in data set [8] is “lower levels of ROS”. In addition, the IC50 in [1] is 2.22 ± 0.08 µM; in [2] it was 0.27 ± 0.01 µM; in data set [3] it was 0.41 ± 0.05 µM. In data set [4], the “ROS production, H2DCFDA fluorescence” value is “brightest fluorescence”. The “Log(K/(M^−2))” value in data set [5] was found to be 7.528 ± 0.004. Moreover, the “IC50 against U266” value in [9] was “submicromolar”. In [10], the log partition coefficient (Log P) worked out at 2.34. Further, the “IC50 against NCI-H929” value in data set [11] was “submicromolar”. Further, in data set [12], the “IC50 against HepG2” value was “submicromolar”.
